Results from PubChem BioAssay (NCI).
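96-well plates; 48 h exposure; 5 concentrations. Endpoints by linear interpolation between flanking doses. Not reached: highest tested concentration assigned. TGI: total growth inhibition.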

Legend:
Experiment in all cases: NCI-60 cell line screen, 48 h
786-0 renal = tested on: 786-0 renal
A498 renal = tested on: A498 renal
A549 NSCLC = tested on: A549 NSCLC
ACHN renal = tested on: ACHN renal
BT-549 breast = tested on: BT-549 breast
CAKI-1 renal = tested on: CAKI-1 renal
COLO 205 colon = tested on: COLO 205 colon
DU-145 prostate = tested on: DU-145 prostate
EKVX NSCLC = tested on: EKVX NSCLC
HCC-2998 colon = tested on: HCC-2998 colon
HCT-116 colon = tested on: HCT-116 colon
HCT-15 colon = tested on: HCT-15 colon
HL-60(TB) leukemia = tested on: HL-60(TB) leukemia
HOP-62 NSCLC = tested on: HOP-62 NSCLC
HS 578T breast = tested on: HS 578T breast
HT29 colon = tested on: HT29 colon
IGROV1 ovarian = tested on: IGROV1 ovarian
K-562 leukemia = tested on: K-562 leukemia
KM12 colon = tested on: KM12 colon
LOX IMVI melanoma = tested on: LOX IMVI melanoma
M14 melanoma = tested on: M14 melanoma
MALME-3M melanoma = tested on: MALME-3M melanoma
MCF7 breast = tested on: MCF7 breast
MDA-MB-231 breast = tested on: MDA-MB-231 breast
MDA-MB-435 = tested on: MDA-MB-435
MOLT-4 leukemia = tested on: MOLT-4 leukemia
NCI-H226 lung = tested on: NCI-H226 lung
NCI-H23 lung = tested on: NCI-H23 lung
NCI-H460 lung = tested on: NCI-H460 lung
NCI-H522 lung = tested on: NCI-H522 lung
NCI/ADR-RES ovarian = tested on: NCI/ADR-RES ovarian
OVCAR-3 ovarian = tested on: OVCAR-3 ovarian
OVCAR-4 ovarian = tested on: OVCAR-4 ovarian
OVCAR-5 ovarian = tested on: OVCAR-5 ovarian
OVCAR-8 ovarian = tested on: OVCAR-8 ovarian
PC-3 prostate = tested on: PC-3 prostate
RPMI-8226 leukemia = tested on: RPMI-8226 leukemia
RXF 393 renal = tested on: RXF 393 renal
SF-268 CNS = tested on: SF-268 CNS
SF-295 CNS = tested on: SF-295 CNS
SK-MEL-2 melanoma = tested on: SK-MEL-2 melanoma
SK-MEL-28 melanoma = tested on: SK-MEL-28 melanoma
SK-MEL-5 melanoma = tested on: SK-MEL-5 melanoma
SN12C renal = tested on: SN12C renal
SNB-19 CNS = tested on: SNB-19 CNS
SNB-75 CNS = tested on: SNB-75 CNS
SR leukemia = tested on: SR leukemia
SW-620 colon = tested on: SW-620 colon
T-47D breast = tested on: T-47D breast
TK-10 renal = tested on: TK-10 renal
U251 CNS = tested on: U251 CNS
UACC-257 melanoma = tested on: UACC-257 melanoma
UACC-62 melanoma = tested on: UACC-62 melanoma
UO-31 renal = tested on: UO-31 renal
HOP-92 NSCLC = tested on: HOP-92 NSCLC
SF-539 CNS = tested on: SF-539 CNS
CCRF-CEM leukemia = tested on: CCRF-CEM leukemia
SK-OV-3 ovarian = tested on: SK-OV-3 ovarian

COc1cc2c(cc1OCCCOc1cc3c(cc1OC)C(=O)N1CCC[C@H]1C(=O)N3)N=C[C@@H]1CCCN1C2=O
TGI (786-0 renal): > 100 µM | TGI (A498 renal): 37.9 µM | TGI (A549 NSCLC): 57.4 µM | TGI (ACHN renal): 38.5 µM | TGI (BT-549 breast): 83.3 µM | TGI (CAKI-1 renal): 88.4 µM | TGI (COLO 205 colon): 12.1 µM | TGI (DU-145 prostate): > 100 µM | TGI (EKVX NSCLC): 46.4 µM | TGI (HCC-2998 colon): 31 µM | TGI (HCT-116 colon): > 100 µM | TGI (HCT-15 colon): > 100 µM | TGI (HL-60(TB) leukemia): 42.3 µM | TGI (HOP-62 NSCLC): > 100 µM | TGI (HS 578T breast): 84.4 µM | TGI (HT29 colon): 35.4 µM | TGI (IGROV1 ovarian): 33.4 µM | TGI (K-562 leukemia): 27.3 µM | TGI (KM12 colon): 67 µM | TGI (LOX IMVI melanoma): 18.7 µM | TGI (M14 melanoma): 55.4 µM | TGI (MALME-3M melanoma): 29.8 µM | TGI (MCF7 breast): 27.3 µM | TGI (MDA-MB-231 breast): 44 µM | TGI (MDA-MB-435): 31.5 µM | TGI (MOLT-4 leukemia): 1.41 µM | TGI (NCI-H226 lung): 35.5 µM | TGI (NCI-H23 lung): 57.4 µM | TGI (NCI-H460 lung): 70.4 µM | TGI (NCI-H522 lung): 6.34 µM | TGI (NCI/ADR-RES ovarian): > 100 µM | TGI (OVCAR-3 ovarian): 54 µM | TGI (OVCAR-4 ovarian): 42.4 µM | TGI (OVCAR-5 ovarian): 59.6 µM | TGI (OVCAR-8 ovarian): > 100 µM | TGI (PC-3 prostate): 57 µM | TGI (RPMI-8226 leukemia): 21.2 µM | TGI (RXF 393 renal): 31 µM | TGI (SF-268 CNS): > 100 µM | TGI (SF-295 CNS): 46.5 µM | TGI (SK-MEL-2 melanoma): 69.6 µM | TGI (SK-MEL-28 melanoma): 46.8 µM | TGI (SK-MEL-5 melanoma): 26.8 µM | TGI (SN12C renal): 61.5 µM | TGI (SNB-19 CNS): > 100 µM | TGI (SNB-75 CNS): 36 µM | TGI (SR leukemia): 3.71 µM | TGI (SW-620 colon): 56.5 µM | TGI (T-47D breast): 77.3 µM | TGI (TK-10 renal): 84.5 µM | TGI (U251 CNS): 38.8 µM | TGI (UACC-257 melanoma): 50 µM | TGI (UACC-62 melanoma): 19.5 µM | TGI (UO-31 renal): 40.5 µM

CS(=O)(=O)CCC1CCC(=O)O1 (configuration not stated)
TGI (786-0 renal): > 100 µM | TGI (A498 renal): > 100 µM | TGI (A549 NSCLC): > 100 µM | TGI (ACHN renal): 90.4 µM | TGI (BT-549 breast): > 100 µM | TGI (CAKI-1 renal): > 100 µM | TGI (DU-145 prostate): > 100 µM | TGI (EKVX NSCLC): > 100 µM | TGI (HCC-2998 colon): > 100 µM | TGI (HCT-116 colon): > 100 µM | TGI (HCT-15 colon): > 100 µM | TGI (HL-60(TB) leukemia): > 100 µM | TGI (HOP-62 NSCLC): > 100 µM | TGI (HOP-92 NSCLC): > 100 µM | TGI (HS 578T breast): > 100 µM | TGI (HT29 colon): > 100 µM | TGI (IGROV1 ovarian): > 100 µM | TGI (K-562 leukemia): > 100 µM | TGI (KM12 colon): > 100 µM | TGI (LOX IMVI melanoma): > 100 µM | TGI (M14 melanoma): > 100 µM | TGI (MALME-3M melanoma): > 100 µM | TGI (MCF7 breast): > 100 µM | TGI (MDA-MB-231 breast): > 100 µM | TGI (MDA-MB-435): > 100 µM | TGI (MOLT-4 leukemia): > 100 µM | TGI (NCI-H226 lung): > 100 µM | TGI (NCI-H23 lung): > 100 µM | TGI (NCI-H460 lung): > 100 µM | TGI (NCI-H522 lung): > 100 µM | TGI (NCI/ADR-RES ovarian): > 100 µM | TGI (OVCAR-3 ovarian): > 100 µM | TGI (OVCAR-5 ovarian): > 100 µM | TGI (OVCAR-8 ovarian): > 100 µM | TGI (PC-3 prostate): > 100 µM | TGI (RPMI-8226 leukemia): > 100 µM | TGI (RXF 393 renal): > 100 µM | TGI (SF-268 CNS): > 100 µM | TGI (SF-295 CNS): > 100 µM | TGI (SF-539 CNS): > 100 µM | TGI (SK-MEL-28 melanoma): > 100 µM | TGI (SK-MEL-5 melanoma): > 100 µM | TGI (SN12C renal): > 100 µM | TGI (SNB-19 CNS): > 100 µM | TGI (SNB-75 CNS): > 100 µM | TGI (SR leukemia): > 100 µM | TGI (SW-620 colon): > 100 µM | TGI (T-47D breast): > 100 µM | TGI (TK-10 renal): > 100 µM | TGI (U251 CNS): > 100 µM | TGI (UACC-257 melanoma): > 100 µM | TGI (UO-31 renal): > 100 µM

O=C(NC1CCCCC1)c1n[nH]nc1Cl
TGI (786-0 renal): > 100 µM | TGI (A498 renal): > 100 µM | TGI (A549 NSCLC): > 100 µM | TGI (ACHN renal): > 100 µM | TGI (BT-549 breast): > 100 µM | TGI (CAKI-1 renal): > 100 µM | TGI (CCRF-CEM leukemia): > 100 µM | TGI (COLO 205 colon): > 100 µM | TGI (DU-145 prostate): > 100 µM | TGI (EKVX NSCLC): > 100 µM | TGI (HCC-2998 colon): > 100 µM | TGI (HCT-116 colon): > 100 µM | TGI (HCT-15 colon): > 100 µM | TGI (HOP-62 NSCLC): > 100 µM | TGI (HOP-92 NSCLC): > 100 µM | TGI (HS 578T breast): > 100 µM | TGI (HT29 colon): > 100 µM | TGI (IGROV1 ovarian): > 100 µM | TGI (K-562 leukemia): > 100 µM | TGI (KM12 colon): > 100 µM | TGI (LOX IMVI melanoma): > 100 µM | TGI (M14 melanoma): > 100 µM | TGI (MCF7 breast): > 100 µM | TGI (MDA-MB-231 breast): > 100 µM | TGI (MDA-MB-435): > 100 µM | TGI (MOLT-4 leukemia): > 100 µM | TGI (NCI-H23 lung): > 100 µM | TGI (NCI-H460 lung): > 100 µM | TGI (NCI/ADR-RES ovarian): > 100 µM | TGI (OVCAR-3 ovarian): > 100 µM | TGI (OVCAR-4 ovarian): > 100 µM | TGI (OVCAR-5 ovarian): > 100 µM | TGI (OVCAR-8 ovarian): > 100 µM | TGI (PC-3 prostate): > 100 µM | TGI (RXF 393 renal): > 100 µM | TGI (SF-268 CNS): > 100 µM | TGI (SF-295 CNS): > 100 µM | TGI (SF-539 CNS): > 100 µM | TGI (SK-MEL-2 melanoma): > 100 µM | TGI (SK-MEL-28 melanoma): > 100 µM | TGI (SK-MEL-5 melanoma): > 100 µM | TGI (SK-OV-3 ovarian): > 100 µM | TGI (SN12C renal): > 100 µM | TGI (SNB-19 CNS): > 100 µM | TGI (SW-620 colon): > 100 µM | TGI (T-47D breast): > 100 µM | TGI (TK-10 renal): > 100 µM | TGI (U251 CNS): > 100 µM | TGI (UACC-257 melanoma): > 100 µM | TGI (UACC-62 melanoma): > 100 µM | TGI (UO-31 renal): > 100 µM
